This assay concerns mannosidase. Kind of assay: Staining with targeted mannosidase substrates after incubation with mannosidase inhibitor. The class given is cell-based, human. The conditions noted are these: 100 uM inhibitor, 1 day (Golgi) or 5 days (ER); substrate 20 uM, 4 hours; AG06173, FIG. 2. How it is done: Normal, healthy human lung fibroblasts (Cell line AG06173, Coriell Institute for Medical Research, Camden, N.J.) were prepared according to example 17 and plated in an optical bottom 96 well plate at 1×10^4 cells/mL.
Cells were then incubated at 37° C. and 5% CO2 in complete EMEM and incubated for 1 (Golgi) or 5 days (ER) at 37° C., 5% CO2 with or without the mannosidase inhibitor swainsonine at 100 uM. The appropriate targeted substrate for staining either the ER or Golgi was then applied at a final concentration of 20 uM and incubated for 4 hours at 37° C., 5% CO2.
Following incubation the cells were washed in PBS and bathed in Opti-Klear™ Imaging Buffer (Marker Gene Technologies, Inc Eugene Oreg.) with or without nuclear stain Hoechst 33342. Cells were then imaged on an EVOS Auto-FL fluorescence microscope (Life Technologies) fitted with a TexasRed™ light cube.

With `O[C@H]1[C@H]2[C@H](O)CCCN2C[C@H]1O` [swainsonine], the “effect on mannosidase activity seen by targeted substrate staining” value is “reduction in enzyme activity”.

The record behind these values is patent US10401361B2, “Intracellular organelle peptide targeted enzyme substrates” (Marker Gene Technologies, Inc., priority 2009, dated 2019).
